Measured values taken from patent US10183015B2, “Heterocyclic compounds and methods of use” (Medivation Technologies LLC, priority 2015, dated 2019).
Read-outs that look alike come from different tables or passages of the source. Blank lines part the entries; values can stand above or below the compound they belong to.

Experiments:
[1] = tested on: SREBP2; experiment: SREBP2 cleavage in HepG2 cells (Western blot); format: cell-based; details: 20 μM, 1 day, DMEM without FBS
Description: (§1) Cancer cells such as HepG2 cells depend on SREBP activation and de novo lipogenesis to survive, particularly in low serum or serum-free conditions. Using this model, compounds were screened over 24 hours for the ability to block cleavage of SREBP to its active form and over 72 hours for an effect on cell viability under serum-free conditions.
Average SREBP2 cleavage in HepG2 cells was measured in the presence of compounds disclosed in Table 1. HepG2 cells were seeded at 500,000 cells per well in 6-well plates in DMEM supplemented with 10% FBS. After 2 days, cells were treated with compounds (20 μM) for 1 day in DMEM without FBS. Western blots were normalized with respect to actin.

[2] = tested on: HepG2 cells; experiment: HepG2 cell viability under serum-free conditions (MTS); format: cell-based; details: Homo sapiens, HepG2, 72 h, 3 days, DMEM without FBS, read-out: Average Viability (% Inhibition, n = 3)
Description: as §1
For viability measurements, HepG2 cells were seeded at 5,000 cells per well in 96-well plates in DMEM supplemented with 10% FBS. After 1 day in culture, cells were treated with compounds (20 μM & 5 μM) for 3 days in DMEM without FBS. Viability was measured by MTS […]. […]

[3] = PK parameters for representative compounds (i.v. and p.o.), Table 4; details: in vivo; for half-life: read-out: Terminal t1/2 (converted)

AUC(0-t) ([3]; iv, i.v. @ 2 mg/kg): 41 µM·h
Cmax ([3]; iv, i.v. @ 2 mg/kg): 10.2 µM
Vd ([3]; iv, i.v. @ 2 mg/kg): 0.345 L/kg
clearance ([3]; iv, i.v. @ 2 mg/kg): 0.095 L/h/kg
half-life ([3]; iv, i.v. @ 2 mg/kg): 2.51 h
AUC(0-t) ([3]; po, p.o. @ 10 mg/kg): 302 µM·h
Cmax ([3]; po, p.o. @ 10 mg/kg): 20.3 µM
Tmax ([3]; po, p.o. @ 10 mg/kg): 1 h
bioavailability ([3]; po, p.o. @ 10 mg/kg vs i.v. @ 2 mg/kg): 149%
half-life ([3]; po, p.o. @ 10 mg/kg): 6.96 h
SMILES: CC(C)(C)c1cc(-c2nc(-c3ccc(NS(=O)(=O)C(F)(F)F)cc3Cl)cs2)ccn1 [Compound 5, N-(4-(2-(2-tert-butylpyridin-4-yl)thiazol-4-yl)-3-chlorophenyl)-1,1,1-trifluoromethanesulfonamide]
Average SREBP2 cleavage (% Inhibition, n = 3) [1]: 81.7%
cytotoxicity at 20 µM ([2]; 20 μM): 99.2%

SMILES: O=S(=O)(Nc1ccc(-c2csc(-c3ccc(F)cc3CN3CCCC3)n2)c(Cl)c1)C(F)(F)F [Compound 91, N-(3-chloro-4-{2-[4-fluoro-2-(pyrrolidin-1-ylmethyl)phenyl]-1,3-thiazol-4-yl}phenyl)-1,1,1-trifluoromethanesulfonamide]
cytotoxicity at 5 µM [2]: 4%

SMILES: O=S(=O)(Nc1ccc(-c2csc(-c3ccnc(NC4CCCC4)c3)n2)c(Cl)c1)C(F)(F)F [Compound 92, N-(3-chloro-4-{2-[2-(cyclopentylamino)pyridin-4-yl]-1,3-thiazol-4-yl}phenyl)-1,1,1-trifluoromethanesulfonamide]
cytotoxicity at 5 µM [2]: 94%

SMILES: O=S(=O)(Nc1ccc(-c2csc(-c3c[nH]c4ccccc34)n2)c(Cl)c1)C(F)(F)F [Compound 93, N-{3-chloro-4-[2-(1H-indol-3-yl)-1,3-thiazol-4-yl]phenyl}-1,1,1-trifluoromethanesulfonamide]
cytotoxicity at 5 µM [2]: 82%

SMILES: O=S(=O)(Nc1ccc(-c2csc(-c3ccnc4ccccc34)n2)c(Cl)c1)C(F)(F)F [Compound 94, N-[3-chloro-4-[2-(4-quinolyl)thiazol-4-yl]phenyl]-1,1,1-trifluoro-methanesulfonamide]
cytotoxicity at 5 µM [2]: 84%

SMILES: O=S(=O)(Nc1ccc(-c2csc(-c3ccnc(Cl)c3)n2)c(Cl)c1)C(F)(F)F [Compound 95, N-(3-chloro-4-(2-(2-chloropyridin-4-yl)thiazol-4-yl)phenyl)-1,1,1-trifluoromethanesulfonamide]
cytotoxicity at 5 µM [2]: 86%
